Experimental data: ChEMBL document CHEMBL1146796, “Design, synthesis and cytotoxic studies on the simplified oxy analog of eleutherobin” (2004)

Assays:
[1] = test system: HBL-100; experiment: Cytotoxic effect against HBL-100 (human breast cancer cell lines) by MTT assay at 100 ug concentration; assay type: functional
[2] = test system: HBL-100; experiment: (§1) Cytotoxic effect against HBL-100 (human breast cancer cell lines) by MTT assay at 10 ug concentration; assay type: functional
[3] = test system: HBL-100; experiment: as §1; assay type: functional, cell-based

`CC1(C)O[C@@H]2[C@H](O1)[C@@H]1OCc3ccccc3C[C@@H](O)[C@H]2O1` gave an Asorbance [1] of 0.081, an Inhibition [1] of 63.3% and a Viability [1] of 36.69%. For the same compound, the Inhibition [2] was 30.62%, the Viability [2] was 69.37% and the Absorbance [3] was 0.153.
